Assay results as given in ChEMBL document CHEMBL1201862, “PubChem BioAssay data set” (2004).
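Briefly, cells in 96-well plates were exposed to five compound concentrations for 48 h, and endpoints were estimated by linear interpolation. Abbreviation: GI50, concentration required for 50% inhibition of growth.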 Calls of active or inactive are those of the source. No stated cut-off is given here; in the data, active = GI50 up to about 1.1 µM and inactive = higher.

Key:
Test in all cases: growth of human tumour cells (NCI), 48 h
786-0 = system: 786-0
A498 = system: A498
A549 = system: A549
ACHN = system: ACHN
BT-549 = system: BT-549
CAKI-1 = system: CAKI-1
COLO 205 = system: COLO 205
DU-145 = system: DU-145
EKVX = system: EKVX
HCC 2998 = system: HCC 2998
HCT-116 = system: HCT-116
HCT-15 = system: HCT-15
HOP-62 = system: HOP-62
HOP-92 = system: HOP-92
HT-29 = system: HT-29
Hs-578T = system: Hs-578T
IGROV-1 = system: IGROV-1
K562 = system: K562
KM12 = system: KM12
LOX IMVI = system: LOX IMVI
M14 = system: M14
MCF7 = system: MCF7
MDA-MB-231 = system: MDA-MB-231
MDA-MB-435 = system: MDA-MB-435
MOLT-4 = system: MOLT-4
Malme-3M = system: Malme-3M
NCI-H226 = system: NCI-H226
NCI-H23 = system: NCI-H23
NCI-H460 = system: NCI-H460
NCI-H522 = system: NCI-H522
NCI/ADR-RES = system: NCI/ADR-RES
OVCAR-3 = system: OVCAR-3
OVCAR-4 = system: OVCAR-4
OVCAR-5 = system: OVCAR-5
OVCAR-8 = system: OVCAR-8
PC-3 = system: PC-3
RXF 393 = system: RXF 393
SF-268 = system: SF-268
SF-295 = system: SF-295
SF-539 = system: SF-539
SK-MEL-28 = system: SK-MEL-28
SK-MEL-2 = system: SK-MEL-2
SK-MEL-5 = system: SK-MEL-5
SK-OV-3 = system: SK-OV-3
SNB-19 = system: SNB-19
SNB-75 = system: SNB-75
SR = system: SR
SW-620 = system: SW-620
T47D = system: T47D
TK-10 = system: TK-10
U-251 = system: U-251
UACC-257 = system: UACC-257
UACC-62 = system: UACC-62
UO-31 = system: UO-31
CCRF-CEM = system: CCRF-CEM
MDA-N = system: MDA-N
RPMI-8226 = system: RPMI-8226
SN12C = system: SN12C
HL-60 = system: HL-60

Compound: O=C1N(CN2CCOCC2)CN(CN2CCOCC2)C(=O)N1Cc1ccc(-c2ccc(CN3C(=O)N(CN4CCOCC4)CN(CN4CCOCC4)C3=O)cc2)cc1
- GI50 (786-0): 9.16 µM (inactive)
- GI50 (A498): 15.3 µM (inactive)
- GI50 (A549): 20.8 µM (inactive)
- GI50 (ACHN): 27.4 µM (inactive)
- GI50 (BT-549): 5.87 µM (inactive)
- GI50 (CAKI-1): 14.2 µM (inactive)
- GI50 (COLO 205): > 21 µM (inactive)
- GI50 (DU-145): 16.8 µM (inactive)
- GI50 (EKVX): 21.7 µM (inactive)
- GI50 (HCC 2998): 11 µM (inactive)
- GI50 (HCT-116): 7.6 µM (inactive)
- GI50 (HCT-15): 9.55 µM
- GI50 (HOP-62): 21.6 µM (inactive)
- GI50 (HOP-92): 9.46 µM (inactive)
- GI50 (HT-29): 19.6 µM (inactive)
- GI50 (Hs-578T): 26.2 µM (inactive)
- GI50 (IGROV-1): 11.6 µM (inactive)
- GI50 (K562): 3.75 µM (inactive)
- GI50 (KM12): 4.73 µM (inactive)
- GI50 (LOX IMVI): 10 µM (inactive)
- GI50 (M14): 5.53 µM (inactive)
- GI50 (MCF7): 4 µM (inactive)
- GI50 (MDA-MB-231): 26.5 µM (inactive)
- GI50 (MDA-MB-435): 2.63 µM (inactive)
- GI50 (MOLT-4): 4.19 µM (inactive)
- GI50 (Malme-3M): 13.2 µM (inactive)
- GI50 (NCI-H226): > 46.2 µM (inactive)
- GI50 (NCI-H23): 10.6 µM (inactive)
- GI50 (NCI-H460): 15.9 µM (inactive)
- GI50 (NCI-H522): 12.2 µM (inactive)
- GI50 (NCI/ADR-RES): 17.3 µM (inactive)
- GI50 (OVCAR-3): 7.78 µM (inactive)
- GI50 (OVCAR-4): 14 µM (inactive)
- GI50 (OVCAR-5): 20.2 µM (inactive)
- GI50 (OVCAR-8): 20.5 µM (inactive)
- GI50 (PC-3): 20.8 µM (inactive)
- GI50 (RXF 393): 10.8 µM (inactive)
- GI50 (SF-268): 14.2 µM (inactive)
- GI50 (SF-295): 23.2 µM (inactive)
- GI50 (SF-539): > 27.8 µM (inactive)
- GI50 (SK-MEL-28): 12.9 µM (inactive)
- GI50 (SK-MEL-2): 6.55 µM (inactive)
- GI50 (SK-MEL-5): > 19.7 µM (inactive)
- GI50 (SK-OV-3): 32.9 µM (inactive)
- GI50 (SNB-19): 10.3 µM (inactive)
- GI50 (SNB-75): 9.55 µM (inactive)
- GI50 (SR): 2.08 µM (inactive)
- GI50 (SW-620): 8.38 µM (inactive)
- GI50 (T47D): 24 µM (inactive)
- GI50 (TK-10): 16.5 µM (inactive)
- GI50 (U-251): 16.1 µM (inactive)
- GI50 (UACC-257): 13.8 µM (inactive)
- GI50 (UACC-62): 9.75 µM (inactive)
- GI50 (UO-31): 19.4 µM (inactive)

Compound: O=C1C2CC=CCC2C(=O)N1n1c(-c2ccccc2)n[nH]c1=O (stereo unspecified)
- GI50 (786-0): > 100 µM (inactive)
- GI50 (A498): > 100 µM (inactive)
- GI50 (A549): > 100 µM (inactive)
- GI50 (ACHN): > 100 µM (inactive)
- GI50 (BT-549): > 100 µM (inactive)
- GI50 (CAKI-1): > 100 µM (inactive)
- GI50 (CCRF-CEM): > 100 µM (inactive)
- GI50 (COLO 205): > 100 µM (inactive)
- GI50 (EKVX): > 100 µM (inactive)
- GI50 (HCC 2998): > 100 µM (inactive)
- GI50 (HCT-116): > 100 µM (inactive)
- GI50 (HCT-15): > 100 µM
- GI50 (HOP-62): > 100 µM (inactive)
- GI50 (HOP-92): > 100 µM (inactive)
- GI50 (HT-29): > 100 µM (inactive)
- GI50 (Hs-578T): > 100 µM (inactive)
- GI50 (IGROV-1): > 100 µM (inactive)
- GI50 (K562): > 100 µM (inactive)
- GI50 (KM12): > 100 µM (inactive)
- GI50 (LOX IMVI): > 100 µM (inactive)
- GI50 (M14): > 100 µM (inactive)
- GI50 (MCF7): > 100 µM (inactive)
- GI50 (MDA-MB-231): > 100 µM (inactive)
- GI50 (MDA-MB-435): > 100 µM (inactive)
- GI50 (MDA-N): > 100 µM (inactive)
- GI50 (MOLT-4): > 100 µM (inactive)
- GI50 (Malme-3M): > 100 µM (inactive)
- GI50 (NCI-H226): > 100 µM (inactive)
- GI50 (NCI-H23): > 100 µM (inactive)
- GI50 (NCI-H460): > 100 µM (inactive)
- GI50 (NCI-H522): > 100 µM (inactive)
- GI50 (NCI/ADR-RES): > 100 µM (inactive)
- GI50 (OVCAR-3): > 100 µM (inactive)
- GI50 (OVCAR-4): > 100 µM (inactive)
- GI50 (OVCAR-5): > 100 µM (inactive)
- GI50 (OVCAR-8): > 100 µM (inactive)
- GI50 (PC-3): > 100 µM (inactive)
- GI50 (RPMI-8226): > 100 µM (inactive)
- GI50 (RXF 393): > 100 µM (inactive)
- GI50 (SF-268): > 100 µM (inactive)
- GI50 (SF-295): > 100 µM (inactive)
- GI50 (SF-539): > 100 µM (inactive)
- GI50 (SK-MEL-2): > 100 µM (inactive)
- GI50 (SK-MEL-5): > 100 µM (inactive)
- GI50 (SK-OV-3): > 100 µM (inactive)
- GI50 (SN12C): > 100 µM (inactive)
- GI50 (SNB-19): > 100 µM (inactive)
- GI50 (SR): > 100 µM (inactive)
- GI50 (SW-620): > 100 µM (inactive)
- GI50 (T47D): > 100 µM (inactive)
- GI50 (TK-10): > 100 µM (inactive)
- GI50 (U-251): > 100 µM (inactive)
- GI50 (UACC-257): > 100 µM (inactive)
- GI50 (UACC-62): > 100 µM (inactive)
- GI50 (UO-31): > 100 µM (inactive)

Compound: COc1cc2c3c(n(C)c(=O)c2cc1OC)-c1cc2c(cc1/C3=C\CCCCCBr)OCO2
- GI50 (786-0): 5.77 µM (inactive)
- GI50 (A498): 14.5 µM (inactive)
- GI50 (A549): 9.08 µM (inactive)
- GI50 (ACHN): 4.39 µM (inactive)
- GI50 (BT-549): 93.1 µM (inactive)
- GI50 (CAKI-1): 3.81 µM (inactive)
- GI50 (CCRF-CEM): 2.38 µM (inactive)
- GI50 (COLO 205): 47.3 µM (inactive)
- GI50 (EKVX): 22.3 µM (inactive)
- GI50 (HCT-15): 21.3 µM
- GI50 (HL-60): 4.02 µM (inactive)
- GI50 (HOP-92): 4.52 µM (inactive)
- GI50 (HT-29): 11.2 µM (inactive)
- GI50 (Hs-578T): > 100 µM (inactive)
- GI50 (IGROV-1): 0.0546 µM (active)
- GI50 (K562): 6.3 µM (inactive)
- GI50 (KM12): 31.9 µM (inactive)
- GI50 (LOX IMVI): 3.01 µM (inactive)
- GI50 (MCF7): 3.5 µM (inactive)
- GI50 (MDA-MB-231): 40.3 µM (inactive)
- GI50 (MDA-N): 34.8 µM (inactive)
- GI50 (MOLT-4): 1.45 µM (inactive)
- GI50 (NCI-H23): 10.6 µM (inactive)
- GI50 (NCI-H460): 5.83 µM (inactive)
- GI50 (NCI-H522): 3.73 µM (inactive)
- GI50 (NCI/ADR-RES): 32.4 µM (inactive)
- GI50 (OVCAR-4): 26.9 µM (inactive)
- GI50 (OVCAR-5): 67.9 µM (inactive)
- GI50 (OVCAR-8): 9.53 µM (inactive)
- GI50 (PC-3): 28.8 µM (inactive)
- GI50 (RPMI-8226): 5.41 µM (inactive)
- GI50 (SF-268): 4.31 µM (inactive)
- GI50 (SF-295): 4.56 µM (inactive)
- GI50 (SK-MEL-28): 0.115 µM (active)
- GI50 (SK-MEL-2): 32.2 µM (inactive)
- GI50 (SK-MEL-5): 4.07 µM (inactive)
- GI50 (SK-OV-3): 7.91 µM (inactive)
- GI50 (SN12C): 5.96 µM (inactive)
- GI50 (SNB-19): 6.5 µM (inactive)
- GI50 (SNB-75): 12.1 µM (inactive)
- GI50 (SR): 0.43 µM (active)
- GI50 (SW-620): 8.32 µM (inactive)
- GI50 (T47D): 2.75 µM (inactive)
- GI50 (TK-10): 20.6 µM (inactive)
- GI50 (U-251): 3.51 µM (inactive)
- GI50 (UACC-257): 25.1 µM (inactive)
- GI50 (UO-31): 4.66 µM (inactive)
